Legend:
[1] = molecular target: Ribosomal protein S6 kinase alpha-6 (Homo sapiens, UniProt Q9UK32); assay: Selectivity interaction (KinomeScan (DiscoverX)) EUB0000607a RPS6KA6; details: at 10 µM
[2] = molecular target: Beta-2 adrenergic receptor (Homo sapiens, UniProt P07550); assay: Selectivity interaction (Panel of kinases, GPCRs, ion channels and transporters (enzymatic assay)) EUB0000266bCl ADRB2
[3] = molecular target: Serine/threonine-protein kinase MRCK alpha (Homo sapiens) (UniProt Q5VT25); assay: Selectivity interaction (Upstate Kinase Profiler service (Millipore)) EUB0000056c CDC42BPA; details: at 1 µM
Serine/threonine-protein kinase MRCK alpha (Homo sapiens), sequence (Q5VT25 whole entry): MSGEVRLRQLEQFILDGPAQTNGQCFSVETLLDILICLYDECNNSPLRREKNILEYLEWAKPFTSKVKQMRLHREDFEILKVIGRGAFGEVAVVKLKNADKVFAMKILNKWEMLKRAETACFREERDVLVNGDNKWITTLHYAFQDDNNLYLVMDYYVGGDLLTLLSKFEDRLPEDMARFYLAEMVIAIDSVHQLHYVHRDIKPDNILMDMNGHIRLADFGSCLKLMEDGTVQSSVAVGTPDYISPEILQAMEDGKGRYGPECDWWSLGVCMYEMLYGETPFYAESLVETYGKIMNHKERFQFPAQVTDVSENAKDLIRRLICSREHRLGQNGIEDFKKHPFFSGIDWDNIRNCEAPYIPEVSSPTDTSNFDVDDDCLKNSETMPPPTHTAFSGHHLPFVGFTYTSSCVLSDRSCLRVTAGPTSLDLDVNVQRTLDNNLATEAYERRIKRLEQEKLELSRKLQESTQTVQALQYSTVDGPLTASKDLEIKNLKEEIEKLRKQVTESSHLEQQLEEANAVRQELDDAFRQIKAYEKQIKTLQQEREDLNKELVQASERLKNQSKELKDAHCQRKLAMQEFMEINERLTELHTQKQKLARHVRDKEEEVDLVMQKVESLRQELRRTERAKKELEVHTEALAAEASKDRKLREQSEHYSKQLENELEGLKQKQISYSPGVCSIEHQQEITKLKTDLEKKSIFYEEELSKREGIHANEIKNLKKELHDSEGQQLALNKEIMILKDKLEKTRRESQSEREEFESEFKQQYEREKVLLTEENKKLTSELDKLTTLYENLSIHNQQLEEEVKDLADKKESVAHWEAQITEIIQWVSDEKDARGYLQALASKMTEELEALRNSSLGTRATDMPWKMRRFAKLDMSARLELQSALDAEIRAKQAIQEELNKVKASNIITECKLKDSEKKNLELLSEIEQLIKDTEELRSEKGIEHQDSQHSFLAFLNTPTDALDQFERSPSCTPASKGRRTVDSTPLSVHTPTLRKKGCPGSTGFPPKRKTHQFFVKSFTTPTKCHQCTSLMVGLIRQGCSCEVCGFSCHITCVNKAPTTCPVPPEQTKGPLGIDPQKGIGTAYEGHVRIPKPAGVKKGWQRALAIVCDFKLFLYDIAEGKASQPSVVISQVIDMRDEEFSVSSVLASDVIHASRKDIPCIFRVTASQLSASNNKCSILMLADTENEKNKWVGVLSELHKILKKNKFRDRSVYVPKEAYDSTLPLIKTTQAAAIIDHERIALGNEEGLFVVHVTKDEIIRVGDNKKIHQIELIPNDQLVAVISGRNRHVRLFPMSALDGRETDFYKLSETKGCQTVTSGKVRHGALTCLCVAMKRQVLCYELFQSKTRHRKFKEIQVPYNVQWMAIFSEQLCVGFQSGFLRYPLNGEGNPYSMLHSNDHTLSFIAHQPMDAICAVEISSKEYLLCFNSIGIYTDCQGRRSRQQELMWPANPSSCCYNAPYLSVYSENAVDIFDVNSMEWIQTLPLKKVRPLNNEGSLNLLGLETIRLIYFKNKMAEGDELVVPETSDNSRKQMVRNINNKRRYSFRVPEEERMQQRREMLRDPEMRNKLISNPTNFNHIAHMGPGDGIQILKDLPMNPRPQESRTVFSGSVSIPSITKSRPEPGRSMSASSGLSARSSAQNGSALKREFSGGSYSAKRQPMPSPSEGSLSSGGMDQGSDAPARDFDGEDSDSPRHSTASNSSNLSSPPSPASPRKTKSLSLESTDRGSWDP

[4] = molecular target: T1, Protein kinase C iota type (Homo sapiens) (UniProt P41743); assay: Selectivity interaction (ProQinase) EUB0000171b PRKCI
T1 sequence (whole entry): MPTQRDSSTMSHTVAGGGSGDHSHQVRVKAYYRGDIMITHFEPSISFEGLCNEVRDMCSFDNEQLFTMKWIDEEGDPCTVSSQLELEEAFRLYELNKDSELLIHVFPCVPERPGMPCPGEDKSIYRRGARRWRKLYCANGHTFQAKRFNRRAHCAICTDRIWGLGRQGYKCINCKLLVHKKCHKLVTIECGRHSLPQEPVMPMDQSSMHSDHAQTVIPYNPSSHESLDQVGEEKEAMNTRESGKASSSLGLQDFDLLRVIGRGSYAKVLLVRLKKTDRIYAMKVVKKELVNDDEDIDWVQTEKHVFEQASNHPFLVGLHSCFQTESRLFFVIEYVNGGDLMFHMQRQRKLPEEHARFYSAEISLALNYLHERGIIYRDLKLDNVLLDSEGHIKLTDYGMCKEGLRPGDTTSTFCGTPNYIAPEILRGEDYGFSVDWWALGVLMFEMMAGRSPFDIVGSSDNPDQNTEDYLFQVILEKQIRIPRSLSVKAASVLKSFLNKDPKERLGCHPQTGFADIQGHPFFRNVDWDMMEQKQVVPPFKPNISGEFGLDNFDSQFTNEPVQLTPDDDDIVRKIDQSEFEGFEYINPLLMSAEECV

[5] = molecular target: T2, Mitogen-activated protein kinase 15 (Homo sapiens) (UniProt Q8TD08); assay: Selectivity interaction (KinomeScan (DiscoverX)) EUB0000695a MAPK15; details: at 100 nM
T2 sequence (whole entry): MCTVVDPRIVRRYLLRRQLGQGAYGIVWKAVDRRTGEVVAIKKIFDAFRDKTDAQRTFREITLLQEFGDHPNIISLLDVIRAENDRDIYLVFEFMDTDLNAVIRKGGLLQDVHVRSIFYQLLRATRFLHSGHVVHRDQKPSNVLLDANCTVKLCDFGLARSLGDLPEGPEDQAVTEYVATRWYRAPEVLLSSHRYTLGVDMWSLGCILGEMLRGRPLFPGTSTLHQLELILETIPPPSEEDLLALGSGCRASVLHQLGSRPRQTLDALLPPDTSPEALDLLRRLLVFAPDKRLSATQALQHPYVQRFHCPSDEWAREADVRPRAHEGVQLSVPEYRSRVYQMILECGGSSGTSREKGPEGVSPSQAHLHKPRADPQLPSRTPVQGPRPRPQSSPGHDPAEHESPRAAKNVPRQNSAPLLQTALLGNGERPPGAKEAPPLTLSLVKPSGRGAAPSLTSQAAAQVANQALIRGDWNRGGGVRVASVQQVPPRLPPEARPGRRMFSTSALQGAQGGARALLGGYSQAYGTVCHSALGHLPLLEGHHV

[6] = molecular target: T3, Serine/threonine-protein kinase Nek1 (Homo sapiens) (UniProt Q96PY6); assay: Selectivity interaction (KinomeScan (DiscoverX)) EUB0001049a NEK1; details: at 1 µM
T3 sequence (whole entry): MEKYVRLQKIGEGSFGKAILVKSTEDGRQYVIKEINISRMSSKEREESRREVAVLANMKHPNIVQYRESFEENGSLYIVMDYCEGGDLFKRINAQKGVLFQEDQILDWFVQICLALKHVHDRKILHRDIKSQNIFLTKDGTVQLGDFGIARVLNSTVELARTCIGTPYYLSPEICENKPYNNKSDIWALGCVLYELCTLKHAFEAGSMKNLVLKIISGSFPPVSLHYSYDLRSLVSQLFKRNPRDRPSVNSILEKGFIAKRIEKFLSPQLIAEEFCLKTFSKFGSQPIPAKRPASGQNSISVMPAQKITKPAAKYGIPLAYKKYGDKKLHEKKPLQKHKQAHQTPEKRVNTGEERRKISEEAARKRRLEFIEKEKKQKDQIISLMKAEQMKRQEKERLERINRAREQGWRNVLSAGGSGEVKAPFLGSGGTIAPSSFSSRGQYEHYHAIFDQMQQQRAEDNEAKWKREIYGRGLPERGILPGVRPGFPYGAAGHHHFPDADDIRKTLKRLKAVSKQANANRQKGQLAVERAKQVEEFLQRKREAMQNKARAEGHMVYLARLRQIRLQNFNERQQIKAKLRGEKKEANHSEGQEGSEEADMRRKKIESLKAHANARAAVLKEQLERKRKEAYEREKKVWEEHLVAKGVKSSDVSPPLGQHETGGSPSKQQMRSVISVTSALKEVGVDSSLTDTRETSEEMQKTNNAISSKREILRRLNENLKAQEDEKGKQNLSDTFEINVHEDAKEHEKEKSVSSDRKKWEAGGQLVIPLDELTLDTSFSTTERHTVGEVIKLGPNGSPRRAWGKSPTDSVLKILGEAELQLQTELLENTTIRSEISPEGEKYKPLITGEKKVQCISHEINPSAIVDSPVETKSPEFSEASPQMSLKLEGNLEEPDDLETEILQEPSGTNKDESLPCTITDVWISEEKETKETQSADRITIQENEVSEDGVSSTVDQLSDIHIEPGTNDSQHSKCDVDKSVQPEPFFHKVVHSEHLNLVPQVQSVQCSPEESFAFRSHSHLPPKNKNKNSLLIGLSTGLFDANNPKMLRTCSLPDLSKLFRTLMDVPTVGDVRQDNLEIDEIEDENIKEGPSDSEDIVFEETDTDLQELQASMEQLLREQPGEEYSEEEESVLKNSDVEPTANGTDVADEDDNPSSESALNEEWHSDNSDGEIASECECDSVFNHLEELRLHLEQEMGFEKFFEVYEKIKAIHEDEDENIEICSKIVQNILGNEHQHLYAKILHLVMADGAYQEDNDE

[7] = molecular target: Receptor-interacting serine/threonine-protein kinase 2 (Homo sapiens, UniProt O43353); assay: Selectivity interaction (KinomeScan (DiscoverX)) EUB0000655a RIPK2; details: at 10 µM
Receptor-interacting serine/threonine-protein kinase 2, sequence (O43353 whole entry): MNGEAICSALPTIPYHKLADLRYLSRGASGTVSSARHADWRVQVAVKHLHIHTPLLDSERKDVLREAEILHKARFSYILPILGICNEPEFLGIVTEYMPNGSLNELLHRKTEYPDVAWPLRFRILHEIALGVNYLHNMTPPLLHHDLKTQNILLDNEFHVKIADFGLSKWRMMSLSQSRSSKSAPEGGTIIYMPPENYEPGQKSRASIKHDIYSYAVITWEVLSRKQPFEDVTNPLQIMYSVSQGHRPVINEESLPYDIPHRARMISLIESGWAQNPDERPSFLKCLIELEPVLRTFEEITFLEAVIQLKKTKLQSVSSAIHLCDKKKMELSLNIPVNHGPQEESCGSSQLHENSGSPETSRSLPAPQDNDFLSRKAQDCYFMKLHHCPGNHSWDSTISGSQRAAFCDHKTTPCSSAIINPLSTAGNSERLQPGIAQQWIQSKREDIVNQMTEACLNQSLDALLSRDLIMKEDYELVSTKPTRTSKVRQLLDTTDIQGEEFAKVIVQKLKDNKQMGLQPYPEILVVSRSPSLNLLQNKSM

[8] = molecular target: Insulin receptor-related protein (Homo sapiens) (UniProt P14616); assay: Selectivity interaction (KinomeScan (DiscoverX)) EUB0001079a INSRR; details: at 1 µM
Insulin receptor-related protein (Homo sapiens), sequence (P14616 27-742 limits assumed): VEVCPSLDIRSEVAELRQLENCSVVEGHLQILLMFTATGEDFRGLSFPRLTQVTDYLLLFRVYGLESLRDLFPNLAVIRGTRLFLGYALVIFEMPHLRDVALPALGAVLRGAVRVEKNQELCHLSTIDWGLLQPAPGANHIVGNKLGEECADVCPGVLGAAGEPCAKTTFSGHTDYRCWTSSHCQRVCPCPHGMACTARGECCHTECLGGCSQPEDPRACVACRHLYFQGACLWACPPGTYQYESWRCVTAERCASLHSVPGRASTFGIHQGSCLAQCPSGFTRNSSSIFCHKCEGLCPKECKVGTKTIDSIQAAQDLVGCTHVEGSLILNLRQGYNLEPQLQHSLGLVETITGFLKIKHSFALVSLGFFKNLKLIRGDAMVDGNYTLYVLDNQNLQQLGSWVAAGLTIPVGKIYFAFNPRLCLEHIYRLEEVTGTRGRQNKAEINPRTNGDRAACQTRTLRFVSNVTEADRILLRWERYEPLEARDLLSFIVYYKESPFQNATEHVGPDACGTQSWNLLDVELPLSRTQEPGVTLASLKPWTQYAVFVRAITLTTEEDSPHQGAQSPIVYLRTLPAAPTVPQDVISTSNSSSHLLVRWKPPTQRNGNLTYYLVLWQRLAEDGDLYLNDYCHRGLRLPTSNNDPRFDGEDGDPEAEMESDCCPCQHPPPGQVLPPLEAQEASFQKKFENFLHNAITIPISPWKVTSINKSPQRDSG
Insulin receptor-related protein (Homo sapiens), sequence (P14616 747-1297 limits assumed): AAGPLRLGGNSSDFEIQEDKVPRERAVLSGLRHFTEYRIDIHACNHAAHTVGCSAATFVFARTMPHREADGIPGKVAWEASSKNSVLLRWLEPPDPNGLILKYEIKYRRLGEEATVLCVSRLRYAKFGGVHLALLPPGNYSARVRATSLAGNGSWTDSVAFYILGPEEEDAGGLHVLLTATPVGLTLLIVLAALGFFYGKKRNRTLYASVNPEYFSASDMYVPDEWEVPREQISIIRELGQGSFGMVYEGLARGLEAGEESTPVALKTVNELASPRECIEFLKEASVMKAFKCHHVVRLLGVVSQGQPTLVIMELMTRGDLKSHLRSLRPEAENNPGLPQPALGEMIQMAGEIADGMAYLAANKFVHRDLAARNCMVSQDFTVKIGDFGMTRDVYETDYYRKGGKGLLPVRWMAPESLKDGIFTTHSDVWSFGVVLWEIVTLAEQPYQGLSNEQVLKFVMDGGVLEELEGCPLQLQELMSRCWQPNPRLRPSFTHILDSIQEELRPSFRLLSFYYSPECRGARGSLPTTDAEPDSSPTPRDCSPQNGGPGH

[9] = molecular target: Cyclin-dependent kinase 3 (Homo sapiens) (UniProt Q00526); assay: Selectivity interaction (KinomeScan (DiscoverX)) EUB0001619a CDK3; details: at 1 µM
Cyclin-dependent kinase 3 (Homo sapiens), sequence (Q00526 whole entry, looked up): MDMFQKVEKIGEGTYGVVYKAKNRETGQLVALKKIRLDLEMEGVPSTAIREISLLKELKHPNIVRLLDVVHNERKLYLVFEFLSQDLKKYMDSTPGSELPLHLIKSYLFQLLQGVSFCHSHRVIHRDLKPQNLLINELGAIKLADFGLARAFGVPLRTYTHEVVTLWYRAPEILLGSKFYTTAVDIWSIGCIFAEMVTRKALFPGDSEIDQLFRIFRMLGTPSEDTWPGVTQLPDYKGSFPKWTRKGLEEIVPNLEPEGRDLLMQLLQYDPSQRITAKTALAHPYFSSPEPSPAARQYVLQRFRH

Ribosomal protein S6 kinase alpha-6, sequence (Q9UK32 whole entry): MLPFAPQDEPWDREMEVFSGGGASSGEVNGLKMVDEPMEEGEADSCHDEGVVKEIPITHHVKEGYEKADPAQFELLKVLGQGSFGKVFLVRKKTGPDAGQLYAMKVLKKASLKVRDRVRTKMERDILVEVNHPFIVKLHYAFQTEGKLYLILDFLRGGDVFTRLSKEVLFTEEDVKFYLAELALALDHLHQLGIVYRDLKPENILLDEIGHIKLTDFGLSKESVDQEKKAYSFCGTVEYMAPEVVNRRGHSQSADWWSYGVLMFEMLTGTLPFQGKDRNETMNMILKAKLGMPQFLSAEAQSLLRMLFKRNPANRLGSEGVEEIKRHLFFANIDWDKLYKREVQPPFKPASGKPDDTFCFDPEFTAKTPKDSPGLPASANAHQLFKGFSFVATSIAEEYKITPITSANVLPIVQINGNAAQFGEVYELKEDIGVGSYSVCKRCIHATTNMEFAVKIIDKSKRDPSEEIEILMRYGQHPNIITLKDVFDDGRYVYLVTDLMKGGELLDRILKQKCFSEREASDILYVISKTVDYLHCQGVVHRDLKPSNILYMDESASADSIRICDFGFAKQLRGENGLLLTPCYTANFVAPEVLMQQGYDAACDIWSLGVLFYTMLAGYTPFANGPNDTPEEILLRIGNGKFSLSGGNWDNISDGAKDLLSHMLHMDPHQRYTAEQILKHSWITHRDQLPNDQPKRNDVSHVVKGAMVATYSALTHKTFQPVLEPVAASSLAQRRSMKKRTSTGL
Beta-2 adrenergic receptor, sequence (P07550 whole entry, looked up): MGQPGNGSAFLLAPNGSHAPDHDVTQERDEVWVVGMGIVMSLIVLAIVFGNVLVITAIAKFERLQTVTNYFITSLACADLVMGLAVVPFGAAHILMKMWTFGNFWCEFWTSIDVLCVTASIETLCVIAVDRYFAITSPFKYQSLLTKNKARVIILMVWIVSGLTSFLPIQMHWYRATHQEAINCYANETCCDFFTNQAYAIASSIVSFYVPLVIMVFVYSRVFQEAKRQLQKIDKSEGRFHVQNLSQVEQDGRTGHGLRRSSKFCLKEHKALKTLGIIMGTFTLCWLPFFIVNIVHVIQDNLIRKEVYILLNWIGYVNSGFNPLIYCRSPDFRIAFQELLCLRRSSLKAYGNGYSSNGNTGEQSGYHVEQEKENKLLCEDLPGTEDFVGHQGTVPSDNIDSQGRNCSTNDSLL

SMILES: CNC(=O)Nc1ccc(-c2nc(N3CC4CCC(C3)O4)c3cnn(C4CCC5(CC4)OCCO5)c3n2)cc1
- % of control [1]: 87%

SMILES: CCn1c(-c2nc3cc(C(=O)N4CCCC(N)C4)ccc3n2C)cc2ccccc21 (stereo not given)
- pXC50 [2]: < 4.5 M

SMILES: Cc1ccc(-c2ccc3c(ccc4sc5c(c43)NC[C@@H](C)NC5=O)n2)cn1
- % of inhibition [3]: -21%

SMILES: C=CC(=O)Nc1cccc(C(=O)Nc2ccc(Nc3cc(-c4[nH]c(SC)nc4C)ccn3)cc2)c1
- % of control ([4]; at 1 µM): 80%
- % of control ([4]; at 5 µM): 52%

SMILES: Cc1cc(F)c(C(=O)Nc2cccc(-c3nncn3C(C)C)n2)cc1-n1cnc(C2CC2)c1
- % of control [5]: 100%

SMILES: COc1cc(Nc2nc(C)cc(-c3cnn4nc(OC)ccc34)n2)cc(C(F)(F)F)c1
- % of control [6]: 100%

SMILES: CN(C)CCOc1ccc(-c2nc(-c3ccncc3)c(-c3ccc4c(c3)CC/C4=N\O)[nH]2)cc1
- % of control [7]: 14%

SMILES: Nc1cnc(N2CCc3cc(S(=O)(=O)Nc4c(F)cc(Cl)cc4F)cc(N4CCCC4=O)c32)nc1 [TP-020n]
- % of control [8]: 100%

SMILES: N#Cc1cccc(-c2c[nH]c3ncnc(N4CCOCC4)c23)c1
- % of control [9]: 93%
